Test results as given in ChEMBL document CHEMBL1136875, “Regioselective preparation of 5-hydroxypropranolol and 4'-hydroxydiclofenac with a fungal peroxygenase” (Bioorg Med Chem Lett, 2009).

Assays:
[1] = biological target: T1, Aromatic peroxygenase (Cyclocybe aegerita) (UniProt B9W4V6); test: Activity of Agrocybe aegerita peroxygenase assessed as conversion of diclofenac to 4'-hydroxydiclofenac at 5 mM in presence of 5 mM H2O2 and 4 mM ascorbic acid
T1 sequence (whole entry): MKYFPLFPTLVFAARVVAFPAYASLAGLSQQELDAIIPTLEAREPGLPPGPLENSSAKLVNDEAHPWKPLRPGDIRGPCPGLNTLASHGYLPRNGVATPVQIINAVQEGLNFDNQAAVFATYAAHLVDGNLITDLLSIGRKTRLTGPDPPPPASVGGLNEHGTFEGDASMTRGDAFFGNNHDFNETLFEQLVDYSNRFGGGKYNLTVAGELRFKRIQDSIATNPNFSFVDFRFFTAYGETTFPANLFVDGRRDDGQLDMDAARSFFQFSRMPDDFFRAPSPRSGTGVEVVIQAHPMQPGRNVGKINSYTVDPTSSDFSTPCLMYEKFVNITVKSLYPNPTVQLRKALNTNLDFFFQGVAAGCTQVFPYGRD

Priestia megaterium [2] = test: Activity of Bacillus megaterium CYP450 D6H10 mutant assessed as conversion of diclofenac to 4'-hydroxydiclofenac at 5 mM in presence of 1 mM H2O2 and 4 mM ascorbic acid
Priestia megaterium [3] = test: Activity of Bacillus megaterium CYP450 D6H10 mutant assessed as conversion of propranolol to 5-hydroxypropranolol at 5 mM in presence of 1 mM H2O2 and 4 mM ascorbic acid
[4] = biological target: T1, Aromatic peroxygenase (Cyclocybe aegerita); test: Activity of Agrocybe aegerita peroxygenase assessed as conversion of propranolol to 5-hydroxypropranolol at 5 mM in presence of 5 mM H2O2 and 4 mM ascorbic acid

Row | Activity [1] | Activity (Priestia megaterium [2]) | Activity (Priestia megaterium [3]) | Activity [4] | Compound
1 | 30% | 30% | – | – | O=C(O)Cc1ccccc1Nc1c(Cl)cccc1Cl
2 | – | – | 0.5% | 13.6% | CC(C)NCC(O)COc1cccc2ccccc12 (centres undefined)
